Broadly, the logP is a log measure of how a compound divides between an organic and an aqueous phase. A word on the solubility: it is the dissolved amount per volume that the medium holds. Low values mean a poorly soluble substance, high ones a readily soluble substance.

Converted amounts (≈) assume the structure as drawn.

With `CCCCC(=O)CCCC`, the logP was 2.88.

`O=[N+]([O-])c1ccc(Cl)cc1Cl` gave a logP of 3.07. The logP values of the last two compounds are within 0.2 log units of each other.

Regarding `CN(C)CCCN1c2cc(O)ccc2Sc2ccc(Cl)cc21`, the logP was determined as 4.63. Turning to `CN(C)c1ccc2cc3ccc(N(C)C)cc3nc2c1`, the solubility was found to be 2640 µM (≈ 700 µg/mL). The compound `NS(=O)(=O)c1nn2c(=Nc3ccccc3)snc2s1` registered a logP of 2.57.

`CN(C)C(N)=S` registered a logP of -0.43.

In turn, `CCOc1ccccc1NCc1cnc2nc(N)nc(N)c2c1C` returned a log partition coefficient (logP) of 2.07. The same measure, in the same setting: the figure for `CC(C)CCCCCCCOP(=O)(Oc1ccccc1)Oc1ccccc1` is 5.44; for `CCCCCCCCOC(=O)c1ccccc1C(=O)OCCCCCCCC` it is 8.1. `CC(C)CC(=O)Oc1ccccc1`: the logP amounted to 3.18. The same measure, in the same setting: the figure for `CCc1c(O)c(=O)ccn1C` is -0.2. `Oc1ccc(O)cc1`: the solubility turned out to be 654000 µM (≈ 72000 µg/mL).

As to `CCOP(=O)(CN(CCO)CCO)OCC`, the lipophilicity (logP) is -0.72. Same read-out and setting: the figure for `S=C=Nc1ccc(Cl)cc1` is 3.91; for `CCCOC(=O)CCC(=O)OCCC` it is 2.16. Same read-out and setting: the figure for `CN(C)c1ccc(N=c2snc3sc(S(N)(=O)=O)nn23)cc1` is 2.32; for `CC(C)OC(C)C` it is 1.52. Still for that read-out and setting: to `Oc1ccc2c(c1)OCC1c3cc4c(cc3OC21)OCO4` (stereo not drawn) belongs 2.61; to `ClCCCBr`, 2.18. The compound `OCc1c(Cl)cccc1Cl` returned a logP of 2.02. On the same count and under the same terms, to `CCCCNC(=O)CCC(NS(=O)(=O)c1ccc(C)cc1)C(=O)O` (stereo not drawn) belongs 0; to `CNC(=O)CCC(=O)c1cccnc1`, -0.69; to `Clc1ccc(O[Si]23OCCN(CCO2)CCO3)cc1`, 0.6. On the same count and under the same terms, to `C=CC(=O)NCCN1CCOCC1` belongs -0.55; to `Cc1ccc(S(=O)(=O)NC(CCC(=O)NC2CCCCC2)C(=O)O)cc1` (stereo not drawn), 0.1. Same read-out and setting: the figure for `Clc1ccc(-c2ccccc2Cl)cc1Cl` is 5.87; for `O=C(CS(=O)(=O)c1ccccc1)c1ccc(Cl)cc1` it is 2.69; for `CCCCc1ccc(Cn2cncn2)cc1` it is 2.81. The compound `Clc1ccc(Nc2cc3nc4ccccc4n(-c4ccc(Cl)cc4)c-3cc2=NCCCN2CCCCC2)cc1` returned a logP of 8.18. As for `Nc1ncnc2c1nc(Sc1ccc(Cl)cc1)n2C1OC2COP(=O)(O)OC2C1O` (stereo not drawn), the logP is -0.98.

Compound `CC(C)=NNc1ccc([N+](=O)[O-])cc1[N+](=O)[O-]` returned a logP of 3.05. For the compound `CC(=NN=C(N)N)c1cccs1`, the logP was determined as 1.05.

`CCOc1cc(C=O)ccc1O` displayed a lipophilicity (logP) of 1.58.

Regarding `CC(=O)c1cc2c(cc1C)C(C)(C)C(C)CC2(C)C` (stereo not drawn), the logP worked out at 5.7 and the solubility came to 4.84 µM (≈ 1.25 µg/mL). In the case of `CCNC(=S)NCC`, the log partition coefficient (logP) came to 0.57. Still for that read-out and setting: to `O=[N+]([O-])c1cc(N(CCO)CCO)ccc1NCCO` belongs 1.7. Same read-out and setting: to `CN(C)c1ncc(-c2ccncc2)cc1C#N` belongs 2.13. Still for that read-out and setting: the figure for `O=C(O)CNC(=O)c1ccc(I)cc1` is 1.94; for `CCc1cc2c(s1)N(C)C(=O)CN=C2c1ccccc1Cl` it is 3.18; for `c1ccc2nc3ccc4ccccc4c3cc2c1` it is 4.48. The compound `Oc1cccc(-c2ccccc2O)c1` had a logP of 4.06. Still for that read-out and setting: to `OCc1cccc(I)c1` belongs 2.55. Same read-out and setting: to `CC(C)(C)C1=CC(=O)C=C(C(C)(C)C)C1=O` belongs 4.42; to `CCNC(N)=S`, -0.21; to `NC(=O)c1ccccc1NCCCO`, 0.7.

Take `Oc1ncnc2[nH]ncc12`: the logP is -0.55. The same measure, in the same setting: the figure for `COP(=S)(OC)Oc1ccc(SC)cc1` is 3.74; for `O=C1CCC(c2cccnc2)N1` (stereo not drawn) it is -0.3; for `C1CCC(C2CO2)CC1` (stereo not drawn) it is 2.43. Still for that read-out and setting: the figure for `Cc1c(Cl)ccc(Cc2c(Cl)cccc2Cl)c1Cl` is 7.2; for `CCOC(=O)C1=C(C)NC(C)=C(C(=O)OC)C1c1cccc([N+](=O)[O-])c1` (stereo not drawn) it is 2.88; for `ClC1(Cl)CC1(c1ccccc1)c1ccccc1` it is 4.88.

Take `CCCCc1c(C)nc(NCC)nc1O`: the log partition coefficient (logP) is 2.22. On the same count and under the same terms, the figure for `O=C1OC(c2ccc(O)cc2)(c2ccc(O)cc2)c2ccccc21` is 2.89. `CCC(C)O` (stereo not drawn): the log10 OH rate constant (cm³/molecule/s) was -11. The compound `c1ccc2c(c1)Cc1cccnc1-2` displayed a lipophilicity (logP) of 2.96.

For `C[C@H](CCC(=O)O)[C@H]1CC[C@H]2[C@@H]3[C@H](O)C[C@@H]4C[C@H](O)CC[C@]4(C)[C@H]3C[C@H](O)[C@]12C`, the logP was 2.02.

In the case of `C#CCN1C(=O)COc2cc(F)c(N3C(=O)C4=C(CCCC4)C3=O)cc21`, the lipophilicity (logP) came out at 2.55. Same read-out and setting: to `Cc1ccc(N)cc1C` belongs 1.84. As to `CC1CCCC(C)C1O` (stereo not drawn), the log partition coefficient (logP) was 2.1. Still for that read-out and setting: the figure for `COc1ccc(Cn2cncn2)cc1` is 1.1; for `O=[N+]([O-])c1ccc2c(c1)Cc1cc([N+](=O)[O-])ccc1-2` it is 3.35; for `CC1=NS(=O)(=O)c2ncccc2N1` it is -0.91. Same read-out and setting: the figure for `O=c1cc(CO)occ1O` is -0.64. The same measure, in the same setting: the figure for `Clc1c(Cl)c(Cl)c2c(oc3c(Cl)c(Cl)c(Cl)c(Cl)c32)c1Cl` is 8.6.

`COC(=O)[C@@H](N)Cc1ccc(O)c(O)c1` showed a logP of -0.21.

Take `CCOC(=O)CCn1nnc2ccccc21`: the logP came out at 1.6.

The record behind these values is the OPERA property sets (Mansouri et al. 2018).
